Assay results as given in US20250152591A1, “TREATMENT OF HEMATOLOGICAL MALIGNANCIES WITH MENIN INHIBITORS AND P-GLYCOPROTEIN INHIBITORS” (Kura Oncology, Inc., priority 2022, published 2025).
Where two headings read alike, the source gives them in different places.

Legend:
MV4;11-PGP cell line = test: CellTiter-Glo cell viability assay, MV4;11-PGP; format: cell-based; set-up: unit of the concentration uncertain
Experimental: (§1) The influence of efflux pumps on the antitumor activity of the test compounds at steady state (more clinically relevant) were evaluated using P-gp-transfected AML cells (MV4;11 cells) in 6-day viability assays.
(§2) A P-gp-expressing KMT2A(MLL)-rearranged cell line model was developed by lentiviral transduction of the MV4;11 parental cell line and then selection for either Luciferase ORF (MV4;11-Control) or P-gp ORF (MV4;11-PGP).
[…] Cell viability was measured by CellTiter-Glo® Luminescent Cell Viability Assay (CTG assay, Promega Corp.) and % Viability was quantified by normalizing to the luminescence values of DMSO-only treated cells. The dose-response curves and IC50's were calculated using GraphPad Prism 9.4.1.
The measured luminescence in the live cells of the MV4;11-Control and MV4;11-PGP cells that were treated with Compound I only (+DMSO), Compound I+posaconazole […], and valspodar (1 mM) are shown in FIGS. 5A and 5B.
In a second set of experiments, MV4;11-Control and MV4;11-PGP cell lines were treated as described above with five menin inhibitors, including Compound I, SNDX-5613, Compound A, Compound B, and Compound C, at concentrations ranging from 0 to 1000 nM. All tested compounds dropped in potency due to the P-gp expression as shown in FIGS. 6A-6J and in Tables 5 and 6 (indicated by increased IC50 values between “MV4;11-Control (Compound+DMSO)” and “MV4;11-PGP (Compound+DMSO)” entries).

[1] = tested on: MV4;11 parental cell line; test: CellTiter-Glo cell viability assay, MV4;11 parental; format: cell-based; details: Homo sapiens, MV4-11, 144 h; Compound I only, 0 to 1000 nM, 6 days, Table 3
Experimental: as §1, §2
The MV4;11 parental, MV4;11-Control, and MV4;11-PGP cells were seeded on a 96-well plate and the cell lines were treated with Compound I at doses ranging from 0 to 1000 nM for 6 days. Cell viability was measured by CellTiter-Glo® Luminescent Cell Viability Assay (CTG assay, Promega Corp.) and % Viability was quantified by normalizing to the luminescence values of DMSO-only treated cells. The dose-response curves and IC50's were calculated using GraphPad Prism 9.4.1.

OCI-AML3-PGP cell line = test: Cell viability assay, OCI-AML3-PGP; format: cell-based; set-up: unit of the concentration uncertain; details: 168 h, 7 days
Experimental: A third set of experiments was conducted in the cell line OCI-AML3, which carries the W288Cfs*12 mutation in NPM protein. The P-gp expressing OCI-AML3 cell line (OCI-AML3-PGP) and the Luciferase expressing OC-AML3 cell line (OCI-AML3-Control) were established by lentivirally transducing P-gp ORF or Luciferase ORF. Cells were treated with Compound I or SNDX-5613 for 7 days to assess the IC50 values.

P-gp = P-gp (Homo sapiens, UniProt P08183); test: in vitro; details: MDCK-MDR1, pH 7.4
Experimental: MDCK epithelial cells stably transfected with the human MDR1 gene (the gene encoding for the efflux protein P-gp) were seeded on a Multiscreen™ plate (Millipore, MA, USA) and formed a confluent monolayer over 4 days prior to the experiment. To verify the MDR1-MDCK cell monolayers were properly formed, aliquots of the cell buffers were analyzed by fluorescence to determine the transport of the impermeable dye Lucifer Yellow. Any deviations from control values are reported.
MDR1-MDCK cells were incubated with these buffers for 2 h, and the receiver side buffer was removed for analysis by LC-MS/MS.
The rate of passage of the test compounds through this cell monolayer barrier from apical to basolateral (A→B) in this bi-directional transport assay was used to determine the apparent permeability coefficient (Papp). Receiver, donor, and dosing solution concentrations were quantified using a calibration curve prepared in transport buffer solution (pH 7.4). Papp is calculated as
where dQ/dt is rate of permeation, C0 is initial concentration of test agent, and A is the area of monolayer (0.11 cm^2). The basolateral to apical (B→A) to apical to basolateral (A→B) apparent permeability coefficient ratio
When RE>2 for a tested compound, the tested compound is a potential substrate for P-gp.
Rantinidine, talinolol, warfarin, and loperamide (±2 μM elacridar) were tested as reference compounds and each was tested at a concentration of 10 μM.

MOLM13-PGP cell line = test: Cell viability assay, MOLM13-PGP; format: cell-based; set-up: unit of the concentration uncertain; details: 168 h, 7 days
Experimental: The effects described above were investigated in an AML cell line, MOLM-13, which carries a KA4T2A (MLL)-rearrangement mutation. The P-gp expressing MOLM-13 cell line (MOLM13-PGP) and the Luciferase expressing MOLM-13 cell line (MOLM13-Control) were established by lentivirally transducing P-gp ORF or Luciferase ORF. Cells were plated and treated with test compound for 7 days.

Chain of P-gp (P08183 whole entry): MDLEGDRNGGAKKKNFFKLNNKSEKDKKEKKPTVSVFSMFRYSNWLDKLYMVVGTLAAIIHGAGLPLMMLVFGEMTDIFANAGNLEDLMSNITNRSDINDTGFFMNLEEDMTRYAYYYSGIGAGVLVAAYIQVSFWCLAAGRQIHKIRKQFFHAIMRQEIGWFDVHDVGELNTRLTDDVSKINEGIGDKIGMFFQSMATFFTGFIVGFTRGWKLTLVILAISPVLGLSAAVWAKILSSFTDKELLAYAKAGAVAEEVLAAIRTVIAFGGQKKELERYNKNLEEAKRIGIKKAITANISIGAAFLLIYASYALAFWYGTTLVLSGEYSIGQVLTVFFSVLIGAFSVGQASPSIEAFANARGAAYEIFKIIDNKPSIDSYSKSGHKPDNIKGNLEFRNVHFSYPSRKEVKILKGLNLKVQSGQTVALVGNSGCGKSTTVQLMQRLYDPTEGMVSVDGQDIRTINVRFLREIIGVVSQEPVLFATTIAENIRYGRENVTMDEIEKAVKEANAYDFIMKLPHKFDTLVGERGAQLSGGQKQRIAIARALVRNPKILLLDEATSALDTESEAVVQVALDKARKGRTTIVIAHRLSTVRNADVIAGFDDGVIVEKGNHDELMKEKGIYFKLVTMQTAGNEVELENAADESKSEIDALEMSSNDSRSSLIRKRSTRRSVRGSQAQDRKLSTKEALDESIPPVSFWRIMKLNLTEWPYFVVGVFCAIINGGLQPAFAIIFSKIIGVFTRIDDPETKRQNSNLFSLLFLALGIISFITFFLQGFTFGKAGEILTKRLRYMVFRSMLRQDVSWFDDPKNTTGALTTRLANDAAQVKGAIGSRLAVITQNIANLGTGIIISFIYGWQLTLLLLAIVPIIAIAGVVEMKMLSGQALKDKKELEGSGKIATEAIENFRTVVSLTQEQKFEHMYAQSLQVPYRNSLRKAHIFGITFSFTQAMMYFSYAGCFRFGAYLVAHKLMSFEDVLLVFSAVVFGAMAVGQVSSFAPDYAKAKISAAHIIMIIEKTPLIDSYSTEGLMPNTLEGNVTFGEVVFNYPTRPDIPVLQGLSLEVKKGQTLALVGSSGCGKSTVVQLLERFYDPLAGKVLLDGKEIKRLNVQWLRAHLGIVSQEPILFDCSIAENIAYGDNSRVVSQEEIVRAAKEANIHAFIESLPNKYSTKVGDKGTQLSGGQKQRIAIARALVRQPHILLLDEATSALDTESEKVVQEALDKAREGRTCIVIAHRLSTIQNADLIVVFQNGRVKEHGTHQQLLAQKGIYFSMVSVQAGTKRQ

With `CNc1nc(NC2CCN(Cc3ccc4c(cc(C#N)n4C[C@H](C)N4CCN(S(C)(=O)=O)CC4)c3C)CC2)c2cc(CC(F)(F)F)sc2n1` [Compound I] the IC50 (MV4;11-PGP cell line; 120 h, MV4;11-PGP, 5 days, Table 4, read-out: IC50 (Compound I + DMSO)) was 33 nM, the IC50 (MV4;11-PGP cell line; 120 h, MV4;11-PGP, posaconazole (1.5 μM), 5 days, Table 4, read-out: IC50 (Compound I + Posaconazole)) was 7.1 nM and the IC50 (MV4;11-PGP cell line; 120 h, MV4;11-PGP, valspodar (1 μM), 5 days, Table 4, read-out: IC50 (Compound I + Valspodar)) was 4.7 nM. It also gave an IC50 (MV4;11-PGP cell line; 144 h, second set of experiments, 0 to 1000 nM, Table 5, read-out: IC50 MV4;11-PGP (Compound + DMSO)) of 19.1 nM, an IC50 (MV4;11-PGP cell line; 144 h, second set of experiments, 0 to 1000 nM, Table 6, read-out: IC50 MV4;11-PGP (Compound + DMSO)) of 19.9 nM and an IC50 (MV4;11-PGP cell line; second set of experiments, posaconazole (1.5 (unit uncertain)), Table 5, read-out: IC50 MV4;11-PGP (Compound + posaconazole)) of 5.79 nM. It also gave an IC50 (MV4;11-PGP cell line; second set of experiments, valspodar (1 (unit uncertain)), Table 6, read-out: IC50 MV4;11-PGP (Compound + valspodar)) of 5.64 nM, an IC50 [1] of 8.5 nM and an IC50 (OCI-AML3-PGP cell line; Table 9, read-out: IC50 OCI-AML3-PGP (Compound + DMSO)) of 38.9 nM. The IC50 (OCI-AML3-PGP cell line; Table 10, read-out: IC50 OCI-AML3-PGP (Compound + DMSO)) was 50.2 nM, the IC50 (OCI-AML3-PGP cell line; posaconazole (0.75 (unit uncertain)), Table 9, read-out: IC50 OCI-AML3-PGP (Compound + posaconazole)) was 19.2 nM and the IC50 (OCI-AML3-PGP cell line; valspodar (1 (unit uncertain)), Table 10, read-out: IC50 OCI-AML3-PGP (Compound + valspodar)) was 15.7 nM. The Papp A→B at 2 h (P-gp) was 0.308 ×10⁻⁶ cm/s, the Papp B→A at 2 h (P-gp) was 1.84 ×10⁻⁶ cm/s and the IC50 (MOLM13-PGP cell line; Table 7, read-out: IC50 MOLM13-PGP (Compound + DMSO)) was 65.7 nM. It also gave an IC50 (MOLM13-PGP cell line; Table 8, read-out: IC50 MOLM13-PGP (Compound + DMSO)) of 63.2 nM, an IC50 (MOLM13-PGP cell line; posaconazole (1.5 (unit uncertain)), Table 7, read-out: IC50 MOLM13-PGP (Compound + posaconazole)) of 19.2 nM and an IC50 (MOLM13-PGP cell line; valspodar (1 (unit uncertain)), Table 8, read-out: IC50 MOLM13-PGP (Compound + valspodar)) of 23 nM.
